Patent publication US8071314B2 (priority 2001, dated 2011)
Where “and” joins values, the source holds several entries; their conditions need not be identical. Equal entries are not always repeated. Where two headings read alike, the source gives them in different places.

Tested on: N-methyl-D-aspartate (NMDA) receptor
Format: cell-based, mouse

NC(CCCP(=O)(O)O)C(=O)O [D-APV, 2-amino-5-phosphonovalerate]
LTP in the presence of the NMDA antagonist (50 μM D-APV, all genotypes, hippocampal slices, 100 Hz tetanus, 100 μM picrotoxin in bath): completely abolished
Posttetanus fEPSP slopes, averaged over 180 min (relative to baseline) (n=3): 107±14% and 97±9%
Posttetanus fEPSP slopes, averaged over 180 min (relative to baseline) (n=5): 106±10%
